Here are results for 32 molecules from patent publication US11203600B2 (Denali Therapeutics Inc., priority 2017, dated 2021).

The target of this assay is GST-hRIPK1 (8-327) (Homo sapiens (Human), UniProt Q13546). Briefly: Fluorescent Polarization Binding (FP Binding) assay, RIPK1. Particulars: GST-hRIPK1 (8-327), mean of at least two independent experiments. An outline of the steps:
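Binding by fluorescence polarisation at RT: 10 nM baculovirus-expressed GST-hRIPK1 (8-327) and 5 nM fluorescent ligand, 30 min, in 50 mM HEPES pH 7.5, 50 mM MgCl2, 0.02% CHAPS, 1% DMSO. FP read at ex 531/em 595 nm. IC50 from normalised percent inhibition, mean of ≥2 experiments.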

What is called IC50 is the concentration that gives 50% inhibition. High values mean lower potency, low ones higher potency.

Molecules are shown by their SMILES. A value given as a limit tells only on which side of the number the result lay.

Chain of GST-hRIPK1 (8-327) (Q13546 8-327): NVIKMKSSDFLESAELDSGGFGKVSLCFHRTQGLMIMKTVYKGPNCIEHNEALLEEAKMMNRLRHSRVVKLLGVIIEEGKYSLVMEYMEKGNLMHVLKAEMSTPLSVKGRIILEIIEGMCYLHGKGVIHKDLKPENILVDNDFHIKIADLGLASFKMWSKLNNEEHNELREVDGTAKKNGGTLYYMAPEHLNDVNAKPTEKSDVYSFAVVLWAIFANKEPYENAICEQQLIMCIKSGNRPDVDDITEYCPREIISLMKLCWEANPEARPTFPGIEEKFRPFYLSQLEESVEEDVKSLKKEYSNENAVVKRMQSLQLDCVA

`N#Cc1cncc2c1OCCN(C(=O)C1CCN(c3ccnc4ccnn34)C[C@@H]1F)C2` (stereo partly drawn) [Example 249, 4-[(3,4)-trans-3-fluoro-1-pyrazolo[1,5-a]pyrimidin-7-yl-piperidine-4-carbonyl]-3,5-dihydro-2H-pyrido[3,4-f][1,4]oxazepine-9-carbonitrile] gave an IC50 of 0.0001 to 0.1 µM.

As to `N#Cc1cncc2c1OCCN(C(=O)C1CCN(c3nccc4ncnn34)C[C@@H]1F)C2` (stereo partly drawn) [Example 250, 4-[(3,4)-trans-3-fluoro-1-([1,2,4]triazolo[1,5-c]pyrimidin-5-yl)piperidine-4-carbonyl]-3,5-dihydro-2H-pyrido[3,4-f][1,4]oxazepine-9-carbonitrile], the IC50 fell in the range of 0.1 to 1 µM.

For `O=C(C1CCN(c2nccc3ncnn23)CC1(F)F)N1CCOc2c(F)cncc2C1` (centres unmarked) [Example 251, [3,3-difluoro-1-([1,2,4]triazolo[1,5-c]pyrimidin-5-yl)-4-piperidyl]-(9-fluoro-3,5-dihydro-2H-pyrido[3,4-f][1,4]oxazepin-4-yl)methanone], the IC50 lay in the range of 0.1 to 1 µM.

Molecule `O=C(C1CCN(c2ccnc3ccnn23)CC1(F)F)N1CCOc2c(F)cncc2C1` (centres unmarked) [Example 252, (3,3-difluoro-1-pyrazolo[1,5-a]pyrimidin-7-yl-4-piperidyl)-(9-fluoro-3,5-dihydro-2H-pyrido[3,4-f][1,4]oxazepin-4-yl)methanone] had an IC50 of 0.1 to 1 µM.

In turn, `O=C(C1CCN(c2ccnc3ccnn23)C[C@@H]1F)N1CCOc2c(F)cncc2C1` (stereo partly drawn) [Example 253, (9-fluoro-3,5-dihydro-2H-pyrido[3,4-f][1,4]oxazepin-4-yl)-[(3,4)-trans-3-fluoro-1-pyrazolo[1,5-a]pyrimidin-7-yl-4-piperidyl]methanone] came in with an IC50 of 0.0001 to 0.1 µM.

On to `O=C(C1CCN(c2ncc(F)cn2)C[C@@H]1F)N1CCOc2ccncc2C1` (stereo partly drawn) [Example 254, 3,5-dihydro-2H-pyrido[3,4-f][1,4]oxazepin-4-yl-[(3,4)-trans-3-fluoro-1-(5-fluoropyrimidin-2-yl)-4-piperidyl]methanone], for which the IC50 lay in the range of 0.1 to 1 µM.

In turn, `O=C(C1CCN(c2nccc3ncnn23)C[C@@H]1F)N1CCOc2c(F)cncc2C1` (some centres unmarked) [Example 255] showed an IC50 of 0.1 to 1 µM.

Molecule `O=C(C1CCN(c2ccnc3c(F)cnn23)C[C@@H]1F)N1CCOc2c(F)cncc2C1` (stereo partly drawn) [Example 256, (9-fluoro-3,5-dihydro-2H-pyrido[3,4-f][1,4]oxazepin-4-yl)-[(3,4)-trans-3-fluoro-1-(3-fluoropyrazolo[1,5-a]pyrimidin-7-yl)-4-piperidyl]methanone] displayed an IC50 of 0.0001 to 0.1 µM.

Molecule `O=C(C1CCN(c2nccn3ncnc23)C[C@@H]1F)N1CCOc2c(F)cncc2C1` (stereo partly drawn) [Example 257, (9-fluoro-3,5-dihydro-2H-pyrido[3,4-f][1,4]oxazepin-4-yl)-[(3,4)-trans-3-fluoro-1-([1,2,4]triazolo[1,5-a]pyrazin-8-yl)-4-piperidyl]methanone] registered an IC50 of 0.1 to 1 µM.

For `Cc1ncc2c(c1C#N)OCCN(C(=O)C(C)(C)C(F)F)C2` [Example 262, 4-(3,3-difluoro-2,2-dimethyl-propanoyl)-8-methyl-3,5-dihydro-2H-pyrido[3,4-f][1,4]oxazepine-9-carbonitrile], the IC50 was 0.1 to 1 µM.

Molecule `[2H]C1([2H])Oc2c(C#N)cncc2CN(C(=O)C(C)(C)C(F)F)C1([2H])[2H]` [Example 263, 2,2,3,3-tetradeuterio-4-(3,3-difluoro-2,2-dimethyl-propanoyl)-5H-pyrido[3,4-f][1,4]oxazepine-9-carbonitrile] displayed an IC50 of 0.0001 to 0.1 µM.

For `CC(CF)(C(=O)N1CCOc2c(C#N)cncc2C1)C(F)F` (centres unmarked) [Example 266, 4-[3,3-Difluoro-2-(fluoromethyl)-2-methyl-propanoyl]-3,5-dihydro-2H-pyrido[3,4-f][1,4]oxazepine-9-carbonitrile], the IC50 lay in the range of 0.1 to 1 µM.

For `CC(F)(F)C(C)(CF)C(=O)N1CCOc2c(C#N)cncc2C1` (centres unmarked) [Example 267, 4-[3,3-Difluoro-2-(fluoromethyl)-2-methyl-butanoyl]-3,5-dihydro-2H-pyrido[3,4-f][1,4]oxazepine-9-carbonitrile], the 50% inhibitory concentration (IC50) is 0.1 to 1 µM.

As to `CC(C(=O)N1CCOc2c(C#N)cncc2C1)(C(F)F)C(F)F` [Example 268, 4-[2-(difluoromethyl)-3,3-difluoro-2-methyl-propanoyl]-3,5-dihydro-2H-pyrido[3,4-f][1,4]oxazepine-9-carbonitrile], the IC50 lay in the range of 0.1 to 1 µM.

In turn, `CC(F)(F)C(C)(C(=O)N1CCOc2c(C#N)cncc2C1)C(F)F` (centres unmarked) [Example 269, 4-[2-(difluoromethyl)-3,3-difluoro-2-methyl-butanoyl]-3,5-dihydro-2H-pyrido[3,4-f][1,4]oxazepine-9-carbonitrile] registered an IC50 of 0.1 to 1 µM.

`C=CC(C)(C)C(=O)N1CCOc2c(C#N)cncc2C1` [Example 271, 4-(2,2-dimethylbut-3-enoyl)-3,5-dihydro-2H-pyrido[3,4-f][1,4]oxazepine-9-carbonitrile] showed an IC50 of 0.0001 to 0.1 µM.

`CC(C)(C(=O)N1CCOc2c(C#N)cncc2C1)C1CC1COC(F)(F)F` (centres unmarked) [Example 274, 4-(2-Methyl-2-(2-((trifluoromethoxy)methyl)cyclopropyl)propanoyl)-2,3,4,5-tetrahydropyrido[3,4-f][1,4]oxazepine-9-carbonitrile] yielded an IC50 of more than 1 µM.

For the molecule `CC(C)(C(=O)N1CCOc2c(C#N)cncc2C1)C1CC(n2nccn2)C1` (centres unmarked) [Example 275, 4-[2-Methyl-2-[3-(triazol-2-yl)cyclobutyl]propanoyl]-3,5-dihydro-2H-pyrido[3,4-f][1,4]oxazepine-9-carbonitrile], the IC50 lay in the range of 0.1 to 1 µM.

Molecule `CC(C)(C(=O)N1CCOc2c(C#N)cncc2C1)C1CC(n2ccnn2)C1` (centres unmarked) [Example 276, 4-[2-Methyl-2-[3-(triazol-1-yl)cyclobutyl]propanoyl]-3,5-dihydro-2H-pyrido[3,4-f][1,4]oxazepine-9-carbonitrile] came in with an IC50 of more than 1 µM.

The molecule `CC(C)(C(=O)N1CCOc2c(C#N)cncc2C1)C1CC(n2cc(F)cn2)C1` (centres unmarked) [Example 277, 4-[2-[3-(4-fluoropyrazol-1-yl)cyclobutyl]-2-methyl-propanoyl]-3,5-dihydro-2H-pyrido[3,4-f][1,4]oxazepine-9-carbonitrile] displayed an IC50 of 0.1 to 1 µM.

Molecule `CC(C)(C(=O)N1CCOc2c(C#N)cncc2C1)C1CC(Cl)C1` (centres unmarked) [Example 278, 4-[2-(3-chlorocyclobutyl)-2-methyl-propanoyl]-3,5-dihydro-2H-pyrido[3,4-f][1,4]oxazepine-9-carbonitrile] had an IC50 of 0.0001 to 0.1 µM.

`CC(C)(C(=O)N1CCOc2c(C#N)cncc2C1)C1CC(OC(F)(F)F)C1` (centres unmarked) [Example 279, 4-[2-methyl-2-[3-(trifluoromethoxy)cyclobutyl]propanoyl]-3,5-dihydro-2H-pyrido[3,4-f][1,4]oxazepine-9-carbonitrile] came in with an IC50 of 0.0001 to 0.1 µM.

In turn, `N#Cc1cncc2c1OCCN(C(=O)C1(F)CCN(c3ccc4c(n3)CNC4)CC1)C2` [Example 286, 4-[1-(6,7-dihydro-5H-pyrrolo[3,4-b]pyridin-2-yl)-4-fluoro-piperidine-4-carbonyl]-3,5-dihydro-2H-pyrido[3,4-f][1,4]oxazepine-9-carbonitrile] yielded an IC50 of more than 1 µM.

`COc1nc(N2CCC(C(=O)N3CCOc4c(C#N)cncc4C3)CC2)c(F)cc1F` [Example 287, 4-[1-(3,5-difluoro-6-methoxy-2-pyridyl)piperidine-4-carbonyl]-3,5-dihydro-2H-pyrido[3,4-f][1,4]oxazepine-9-carbonitrile] showed an IC50 of 0.0001 to 0.1 µM.

`N#Cc1cncc2c1OCCN(C(=O)C1CCN(c3nc(F)c(F)cc3F)CC1)C2` [Example 288, 4-[1-(3,5,6-trifluoro-2-pyridyl)piperidine-4-carbonyl]-3,5-dihydro-2H-pyrido[3,4-f][1,4]oxazepine-9-carbonitrile]: the IC50 is 0.0001 to 0.1 µM.

In the case of `COc1nc(N2CCC(OC)(C(=O)N3CCOc4c(C#N)cncc4C3)CC2)c(F)cc1F` [Example 289, 4-[1-(3,5-difluoro-6-methoxy-2-pyridyl)-4-methoxy-piperidine-4-carbonyl]-3,5-dihydro-2H-pyrido [3,4-f][1,4]oxazepine-9-carbonitrile], the IC50 is 0.0001 to 0.1 µM.

`CC(C)(C(=O)N1CCOc2c(C#N)cncc2C1)[C@H]1C[C@H](Cn2nccn2)C1` [Example 290, trans-4-[2-methyl-2-[3-(triazol-2-ylmethyl)cyclobutyl]propanoyl]-3,5-dihydro-2H-pyrido [3,4-f][1,4]oxazepine-9-carbonitrile] registered an IC50 of 0.1 to 1 µM.

Molecule `CC(C)(C(=O)N1CCOc2c(C#N)cncc2C1)[C@H]1C[C@@H](Cn2nccn2)C1` [Example 291, cis-4-[2-methyl-2-[3-(triazol-2-ylmethyl)cyclobutyl]propanoyl]-3,5-dihydro-2H-pyrido[3,4-f][1,4]oxazepine-9-carbonitrile] gave an IC50 of 0.1 to 1 µM.

With `CC(C)(C(=O)N1CCOc2c(C#N)cncc2C1)[C@H]1C[C@H](Cn2ccnn2)C1` [Example 292, trans-4-[2-methyl-2-[3-(triazol-1-ylmethyl)cyclobutyl]propanoyl]-3,5-dihydro-2H-pyrido [3,4-f][1,4]oxazepine-9-carbonitrile], the IC50 was more than 1 µM.

In turn, `CC(C)(C(=O)N1CCOc2c(C#N)cncc2C1)[C@H]1C[C@@H](Cn2ccnn2)C1` [Example 293, cis-4-[2-methyl-2-[3-(triazol-1-ylmethyl)cyclobutyl]propanoyl]-3,5-dihydro-2H-pyrido [3,4-f][1,4]oxazepine-9-carbonitrile] registered an IC50 of more than 1 µM.

Molecule `N#Cc1cncc2c1OCCN(C(=O)C1(F)CCN(c3ncc(F)n4ncnc34)CC1)C2` [Example 294, 4-[4-fluoro-1-(5-fluoro-[1,2,4]triazolo[1,5-a]pyrazin-8-yl)piperidine-4-carbonyl]-3,5-dihydro-2H-pyrido [3,4-f][1,4]oxazepine-9-carbonitrile] yielded an IC50 of 0.0001 to 0.1 µM.

In the case of `COC1CN(c2ncc(F)cn2)CCC1C(=O)N1CCOc2c(C#N)cncc2C1` (centres unmarked) [Example 309, 4-[1-(5-fluoropyrimidin-2-yl)-3-methoxy-piperidine-4-carbonyl]-3,5-dihydro-2H-pyrido[3,4-f][1,4]oxazepine-9-carbonitrile], the IC50 lay within 0.1 to 1 µM.
